We go through 7 molecules from PMC8478282, “Recombinant Peptide Mimetic NanoLuc Tracer for Sensitive Immunodetection of Mycophenolic Acid” (Analytical Chemistry, 2021).

pKd: −log10 of the molar value. “Also recorded” adds a separate entry of the source. Bridges are numbered along the chain shown (N, C = ends). Where no end group is shown, it is not given here.

For one data set, the system named is anti-MPA Fab antibody. Kind of data set: SPR (Biacore T200), 1:1 Langmuir kinetics, binding to immobilized anti-MPA Fab. To be noted: for Dissociation rate constant kd: Biacore T200, CM5 chip, anti-MPA (14) Fab immobilized, anti-OTA Fab reference, 1x PBS-P, +25 °C, dissociation phase 5 min, averages (± SE), seven concentrations; for Binding to anti-MPA Fab surface: SPR, concentration-dependent responses. From the text: To compare the binding properties of the biotinylated cyclic peptide and MPA toward the anti-MPA antibody, label-free SPR technology was applied. In the binding experiments, previously identified, produced, and purified Fab antibodies recognizing either MPA or ochratoxin A were immobilized onto sensor chip surfaces.[22] The same experimental conditions were used to study the binding properties of cyclic peptide (A2) and MPA. The results are presented in Figures S3 and S4 and summarized in Table S1 (Supporting Information).
(§1) solution as described before.
(§2) (OTA) Fab fragment on reference surface (flow channel 1). As running buffer, 1× PBS-P
(§3) After dissociation phase of 5 min, regeneration
followed by stabilization period of 60s. All samples were analyzed in replicates. […]
Background: SPR reads the build-up and loss of mass on a sensor chip optically.

Data set [1] concerns anti-MPA. Description: Bead-based competitive immunoassay with synthetic biotinylated peptide A2. It is filed as binding.
In data set [2] the test system is biotinylated anti-MPA Fab antibody. Description: Bioluminescent bead-based competitive immunoassay with A2-NanoLuc / NanoLuc-A2 tracer. It is filed as binding. To be noted: for Cross-reactivity: IC50 for MPA divided by the IC50 of the interferent. Here is the method:
(§4) To detect MPA with the A2-NanoLuc fusion protein, a bead-based assay was carried out on a black microtiter well plate by immobilizing the biotinylated anti-MPA onto streptavidin-coated magnetic beads (Figure 1). Briefly, the wells were first blocked with assay buffer (SuperBlock with 0.05% Tween-20) for 1 h. Then, 60 μL of 5 μg mL^–1 biotinylated anti-MPA in assay buffer and 20 μL of streptavidin beads (1:50 dilution from the stock) were added to the wells and incubated for 30 min at RT. After washing three times with PBST, 60 μL of a solution containing different concentrations of MPA and 77 μg mL^–1 of the A2-NanoLuc in assay buffer was added to the wells and incubated 30 min at RT. Once the beads were washed, 60 μL of NanoGLO substrate in PBS were added and bioluminescence was measured after a 2 min incubation at 470 nm with a bandwidth of 80 nm using a CLARIOstar microplate reader.
The matrix effect was tested in the presence of different dilutions of the ultrafiltered serum samples [1/2, 1/6, and 1/8, (v/v)], treated following a previously described procedure,[11] in PBST. […] Therefore, such dilution was used for further experiments.

For data set [3] the following is noted: serum; cited from earlier work. From the text:
Mycophenolic acid (MPA) is a mycotoxin produced by Penicillium fungi, and it is widely used as an immunosuppressant drug to prevent organ rejection in transplanted patients.[1] Recently, it has also been tested as a chemotherapeutic agent as it inhibits the proliferation of cancer cells.[2] Due to the small therapeutic window that MPA has, it is very important to monitor correctly its levels inside the human body.[3] MPA is mainly found in the serum, but only 1% of the total MPA exists in the free form, which is the one responsible for its pharmacological activity.[3],[4] Therefore, the availa ...

The nature of data set [4]: Biosensor analysis of blood samples of patients and healthy controls. Type of data set: in vivo, human. The following applies: free MPA. On the procedure:
as §4, §1, §2, §3
followed by stabilization period of 60s. All samples were analyzed in replicates. The result s were
for MPAG, Acyl-MPAG and MPA respectively. The rt were reproducible between runs. Fig ure
The three metabolites were
curves was >0.99 for all compounds tested.
and centrifuged at 12,045 g for 30 min.
samples and vortexed for 5 minutes at 1000 rpm. […]

In data set [5] the test system is anti-MPA. Description: Bead-based competitive phage immunoassay with clone A2. Type of data set: binding. To be noted: Amplex UltraRed fluorescence, n = 3. Here is the method: (§5) Briefly, black microtiter plates were blocked with 280 μL of assay buffer for 1 h at RT and subsequently washed three times with PBS. Then, the biotinylated anti-MPA (1.2 μg mL^–1) and neutravidin-coated magnetic beads (125 μg mL^–1) functionalized as described before,[18] were added to the wells in the assay buffer (total volume 260 μL per well), and incubated for 30 min at RT. After washing the beads using a plate washer with a magnetic support, the phage clone (10^11 pfu mL^–1) and increasing concentrations of free MPA were added to the wells (in assay buffer, 60 μL per well) and incubated for 30 min at RT. The beads were washed again to remove the excess, followed by incubation with HRP-conjugated anti-M13 antibody (1:5000 dilution in assay buffer; 80 μL per well) for 30 min at RT. Finally, after washing, 80 μL of Amplex UltraRed solution was added to each well, and the fluorescence was monitored with a CLARIOstar microplate reader (BMG Labtech) (λex = 530 nm and λem = 590 nm).

The conditions of data set [6]: human, in vivo.
Method: Volunteers donated whole blood samples with permission from the Ethics Committee from Hospital Clínico Universitario de Valladolid, Spain (no. PI 21-2245). The blood samples were kept at 20 °C during transport and storage. The samples were treated following the procedure described previously (see the Supporting Information for details).[11]
100µL of a 0.1 µg mL−1 bi o -A2 solution were added to the neutravidin-functionalized beads
solution as described before. After a 30-min incubation and a similar washing step, 100 µL of a
solution containing 0.5µg mL −1 of anti-MPA and different concentrations of free MPA,
previously incubated during 10 min, were added to the beads and incubated for another 30 m in.
After washing, an anti-IgG-HRP antibody was added, incubated 30 min and washed thereafter.
Finally, 80 µL of Amplex UltraRed was added and the fluorescence was monitored as described
The optimized separation of the three metabolites was performed in gradient elution mode,
quantified using an internal standard (MPA-LuciferYellow) calibration model using a nine-point
calibration curve, with a concentration range (0.5–80 ng mL −1 for MPA; 50–15000ng mL−1 f or
MPAG and 12– 250ng mL−1 for Acyl-MPAG) for the three metabolites. […]
analyzed. Free MPA was analyzed in plasma samples after a 1:8 dilution in SuperBlock + 0.05% […]
The test system of data set [7] is anti-MPA. Kind of data set: Plate-based phage ELISA, direct and competitive. Type of data set: binding. On the procedure:
The assay was carried out at room temperature (RT). The biotinylated anti-MPA (Supporting Information) [5 μg mL^–1 in the assay buffer (SuperBlock supplemented with 0.05% Tween-20); 100 μL per well] was immobilized on streptavidin-coated wells (30 min), followed by three-time washes with PBST. The wells were then blocked with 280 μL of assay buffer for 30 min and washed again three times with PBS. Then, the amplified phage stock (between 10^10 and 10^11 pfu mL^–1; 100 μL per well) was added to the wells in assay buffer and incubated for 1 h with slow shaking. After washing the wells as described above, the HRP-conjugated anti-M13 monoclonal antibody (1:5000 dilution in assay buffer; 100 μL per well) was added to the wells and incubated for 1 h. Finally, the plate was washed three times as described above and 100 μL of ABTS was added to the wells. After 5 min, absorbance at 405 nm was measured in a Varioskan plate reader (Thermo Scientific).
as §5
A general note: An ELISA detects its analyte on a solid surface through an enzyme-linked reagent.

Where [8] appears, read: A2-NanoLuc bead-based bioluminescent assay, n = 3.

For the molecule “A(CEGLYAHWC)GGGSK(Bio)-NH2 (disulfide) [Cyclic peptide (A2)]”, in the data set with anti-MPA Fab antibody, the “Dissociation rate constant kd” value is 0.583 ± 0.001 s⁻¹ and the “Binding to anti-MPA Fab surface” value is reported as “showed binding to the anti-MPA Fab antibody surface”. Besides, the “Association / dissociation relative to MPA” value in the data set with anti-MPA Fab antibody (compared to MPA–anti-MPA Fab antibody complex) was “slower association and faster dissociation”. For the same molecule, the “Competition with free MPA” value with anti-MPA [1] (synthetic biotinylated peptide, competitive neutravidin bead-based assay) is listed as “competition at the nanomolar level”.

Consider `COc1c(C)c2c(c(O)c1C/C=C(\C)CCC(=O)O)C(=O)OC2` [MPA, Mycophenolic acid], for which the “Dissociation rate constant kd” value in the data set with anti-MPA Fab antibody was 0.0741 ± 0.0004 s⁻¹. For the same molecule, the pKd on anti-MPA Fab antibody (MPA and anti-MPA Fab interaction, in agreement with previous SPR affinity in solution results, read-out: Affinity constant) is roughly 7.40. Moreover, the “Binding to anti-MPA Fab surface” value in the data set on anti-MPA Fab antibody was “showed binding to the anti-MPA Fab antibody surface”. Besides, the “Dynamic range (20–80% inhibition)” value is given as 0.64–14 ng mL^–1 in data set [2] (A2-NanoLuc tracer, assay buffer, bioluminescence, n = 3); 2.4–60 ng mL^–1 with anti-MPA [1] (biotinylated A2 peptide (0.1 µg/mL) on neutravidin beads, anti-MPA 0.5 µg/mL, Amplex UltraRed fluorescence, n = 3); 1.0–4.1 ng mL^–1 with anti-MPA [5] (phage clone A2 (10^11 pfu/mL), neutravidin beads). Further, the “Matrix effect on dose response curve” value in data set [2] (PBST vs ultrafiltered serum diluted 1/8 (v/v), p > 0.05, n = 3) is recorded as “No significant differences”. Also, the “LOD (10% inhibition)” value in data set [2] (free MPA competing with A2-NanoLuc (77 μg/mL) for biotinylated anti-MPA on streptavidin beads, assay buffer (SuperBlock + 0.05% Tween-20), RT, 30 min, bioluminescence 470 nm, n = 3) is reported as 0.26 ng mL^–1; with anti-MPA [1] (free MPA, biotinylated A2 peptide (0.1 µg/mL) on neutravidin beads, anti-MPA 0.5 µg/mL pre-incubated 10 min with MPA, 30 min, anti-IgG-HRP, Amplex UltraRed fluorescence, n = 3) it was 0.94 ng mL^–1; in the data set on anti-MPA [5] (free MPA competing with phage clone A2 (10^11 pfu/mL), neutravidin beads with biotinylated anti-MPA, assay buffer, RT, 30 min), 0.69 ng mL^–1. In addition, in data set [2] (free MPA competing with A2-NanoLuc (77 μg/mL) for biotinylated anti-MPA on streptavidin beads, assay buffer, RT, 30 min, bioluminescence 470 nm, logistic fit, n = 3), the IC50 came to 2.9 ± 0.5 ng mL^–1. In addition, in data set [3], the “Free form of total MPA” value was 1%. In addition, the “MPA detected in control samples” value in data set [4] (healthy controls H1–H3) is recorded as “no MPA was detected in the control samples”. Besides, the “MPA concentration levels by patient” value in data set [4] (transplanted patients T1–T5) is “patients T1 and T2 had the highest MPA concentration levels”.

Take cyclosporin: the Cross-reactivity entry in data set [2] (setting [8]) is “lower than 0.03%”.

On to `COc1c(C)c2c(c(O[C@@H]3O[C@H](C(=O)O)[C@@H](O)[C@H](O)[C@H]3O)c1C/C=C(\C)CCC(=O)O)C(=O)OC2` [MPAG, mycophenolic acid glucuronide], for which, in data set [2] (setting [8]), the Cross-reactivity worked out at 0.03%. Besides, the “MPAG level in samples vs biosensor” value in data set [6] is “below the limit of quantification of the biosensor”.

Consider “ACEGLYAHWC (disulfide 2-10 (inferred)) [A2, phage clone displaying […] with a disulfide bond between the two cysteines; MPA mimetic]”, for which the “Signal in competitive ELISA in the presence of free MPA” value in the data set with anti-MPA [7] (100 ng/mL free MPA added with phage clone A2, data not shown) is on record as “significant decrease in the signal”. In the data set with anti-MPA [7] (phage ELISA in the absence of anti-MPA), the Nonspecific binding entry is on record as “very low nonspecific binding”. The “Phage ELISA binding to anti-MPA” value in the data set on anti-MPA [7] (phage clone vs immobilized biotinylated anti-MPA, signal-to-background, ABTS, absorbance 405 nm) is reported as “very high signal-to-background ratio; also recorded: high specificity toward anti-MPA”.

With `C=CC[C@@H]1/C=C(\C)C[C@H](C)C[C@H](OC)[C@H]2O[C@@](O)(C(=O)C(=O)N3CCCC[C@H]3C(=O)O[C@H](/C(C)=C/[C@@H]3CC[C@@H](O)[C@H](OC)C3)[C@H](C)[C@@H](O)CC1=O)[C@H](C)C[C@@H]2OC` [tacrolimus], the Cross-reactivity entry in data set [2] (setting [8]) is given as “lower than 0.03%”.

For the molecule `COc1c(C)c2c(c(O)c1C/C=C(\C)CCC(=O)O[C@@H]1O[C@H](C(=O)O)[C@@H](O)[C@H](O)[C@H]1O)C(=O)OC2` [acyl-MPAG, acyl-mycophenolic acid glucuronide], the Cross-reactivity in data set [2] (setting [8]) is recorded as 58%. For the same molecule, in data set [2] (cross-reactivity test, A2-NanoLuc bead-based bioluminescent assay), the “Behavior in the assay compared to MPA” value is on record as “very similar behavior to MPA”.
